One block for each compound: values may come before it.
Test system: LG0567-F671-PDC complex spheroids viability
Experiment: Anticancer human tumor LG0567-F671-PDC patient-derived lung adenocarcinoma cell line growth inhibition [RAS]
Conditions: for IC50: curve of first compound; for viability, T/C: stronger effect = lower value
Procedure, shortened: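 Tumour cells grown as complex spheroids with HUVEC endothelial cells and mesenchymal stem cells, treated with RAS pathway inhibitor combinations. Each agent spans half-log steps from near clinical Cmax, or 10 microM where Cmax is unknown.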

[1] = second compound 0.000949 µM, first compound 0.0316 µM
[2] = second compound 0.000949 µM, first compound 0.1 µM
[3] = second compound 0.000949 µM, first compound 0.316 µM
[4] = second compound 0.000949 µM, first compound 1 µM
[5] = second compound 0.003 µM, first compound 0.0316 µM
[6] = second compound 0.003 µM, first compound 0.1 µM
[7] = second compound 0.003 µM, first compound 0.316 µM
[8] = second compound 0.003 µM, first compound 1 µM
[9] = second compound 0.00949 µM, first compound 0.0316 µM
[10] = second compound 0.00949 µM, first compound 0.1 µM
[11] = second compound 0.00949 µM, first compound 0.316 µM
[12] = second compound 0.00949 µM, first compound 1 µM
[13] = second compound 0.03 µM, first compound 0.0316 µM
[14] = second compound 0.03 µM, first compound 0.1 µM
[15] = second compound 0.03 µM, first compound 0.316 µM
[16] = second compound 0.03 µM, first compound 1 µM
[17] = second compound 0.0949 µM, first compound 0.0316 µM
[18] = second compound 0.0949 µM, first compound 0.1 µM
[19] = second compound 0.0949 µM, first compound 0.316 µM
[20] = second compound 0.0949 µM, first compound 1 µM
[21] = second compound 0.3 µM, first compound 0.0316 µM
[22] = second compound 0.3 µM, first compound 0.1 µM
[23] = second compound 0.3 µM, first compound 0.316 µM
[24] = second compound 0.3 µM, first compound 1 µM
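Further: spheroids exposed to compound for seven days before readout.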
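Wherever IC50 is given: luminescence signal used as a proxy for viable cells.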

IC50 (second compound 0.000949 µM): < 3.16 nM | IC50 (second compound 0.003 µM): < 3.16 nM | IC50 (second compound 0.00949 µM): < 3.16 nM | IC50 (second compound 0.03 µM): < 3.16 nM | IC50 (second compound 0.0949 µM): < 3.16 nM | IC50 (second compound 0.3 µM): < 3.16 nM
Structure (SMILES): Nc1ccn(C2OC(CO)C(O)C2(F)F)c(=O)n1 (centres undefined) + CCn1c(-c2cc(N3CCN(C)CC3)cnc2C(C)OC)c2c3cc(ccc31)-c1csc(n1)CC(NC(=O)C1CC1C)C(=O)N1CCCC(N1)C(=O)OCC(C)(C)C2
viability, T/C (second compound 0.000949 µM, first compound 0.00316 µM): 23.8% | viability, T/C (second compound 0.000949 µM, first compound 0.01 µM): 22.4% | viability, T/C [1]: 22.1% | viability, T/C [2]: 22.6% | viability, T/C [3]: 20.7% | viability, T/C [4]: 22% | viability, T/C (second compound 0.003 µM, first compound 0.00316 µM): 11% | viability, T/C (second compound 0.003 µM, first compound 0.01 µM): 10.7% | viability, T/C [5]: 10.6% | viability, T/C [6]: 8.86% | viability, T/C [7]: 11.5% | viability, T/C [8]: 12.4% | viability, T/C (second compound 0.00949 µM, first compound 0.00316 µM): 6.32% | viability, T/C (second compound 0.00949 µM, first compound 0.01 µM): 6.32% | viability, T/C [9]: 6.59% | viability, T/C [10]: 6.78% | viability, T/C [11]: 6.01% | viability, T/C [12]: 7.27% | viability, T/C (second compound 0.03 µM, first compound 0.00316 µM): 6.63% | viability, T/C (second compound 0.03 µM, first compound 0.01 µM): 4.5% | viability, T/C [13]: 4.58% | viability, T/C [14]: 4.82% | viability, T/C [15]: 5.13% | viability, T/C [16]: 5.29% | viability, T/C (second compound 0.0949 µM, first compound 0.00316 µM): 3.22% | viability, T/C (second compound 0.0949 µM, first compound 0.01 µM): 3.54% | viability, T/C [17]: 3.82% | viability, T/C [18]: 3.99% | viability, T/C [19]: 4.28% | viability, T/C [20]: 5.17% | viability, T/C (second compound 0.3 µM, first compound 0.00316 µM): 2.59% | viability, T/C (second compound 0.3 µM, first compound 0.01 µM): 2.74% | viability, T/C [21]: 3.25% | viability, T/C [22]: 3.47% | viability, T/C [23]: 4.08% | viability, T/C [24]: 3.48%

IC50 (second compound 0.000949 µM): < 31.6 nM | IC50 (second compound 0.003 µM): < 31.6 nM | IC50 (second compound 0.00949 µM): < 31.6 nM | IC50 (second compound 0.03 µM): < 31.6 nM | IC50 (second compound 0.0949 µM): < 31.6 nM | IC50 (second compound 0.3 µM): < 31.6 nM
Structure (SMILES): CC(Nc1ccc2c(c1)OCCn1cc(N3C(=O)OCC3C(F)F)nc1-2)C(N)=O (centres undefined) + CCn1c(-c2cc(N3CCN(C)CC3)cnc2C(C)OC)c2c3cc(ccc31)-c1csc(n1)CC(NC(=O)C1CC1C)C(=O)N1CCCC(N1)C(=O)OCC(C)(C)C2
viability, T/C [1]: 19.3% | viability, T/C [2]: 12.9% | viability, T/C [3]: 10.5% | viability, T/C [4]: 7.84% | viability, T/C (second compound 0.000949 µM, first compound 3.16 µM): 7.19% | viability, T/C (second compound 0.000949 µM, first compound 10 µM): 7.14% | viability, T/C [5]: 7.68% | viability, T/C [6]: 7.52% | viability, T/C [7]: 5.35% | viability, T/C [8]: 3.88% | viability, T/C (second compound 0.003 µM, first compound 3.16 µM): 3.53% | viability, T/C (second compound 0.003 µM, first compound 10 µM): 3.37% | viability, T/C [9]: 5.03% | viability, T/C [10]: 3.43% | viability, T/C [11]: 3.46% | viability, T/C [12]: 2.91% | viability, T/C (second compound 0.00949 µM, first compound 3.16 µM): 1.87% | viability, T/C (second compound 0.00949 µM, first compound 10 µM): 1.74% | viability, T/C [13]: 3.07% | viability, T/C [14]: 2.58% | viability, T/C [15]: 1.57% | viability, T/C [16]: 1.37% | viability, T/C (second compound 0.03 µM, first compound 3.16 µM): 1.64% | viability, T/C (second compound 0.03 µM, first compound 10 µM): 1.25% | viability, T/C [17]: 2.35% | viability, T/C [18]: 2.02% | viability, T/C [19]: 1.42% | viability, T/C [20]: 1.29% | viability, T/C (second compound 0.0949 µM, first compound 3.16 µM): 1.01% | viability, T/C (second compound 0.0949 µM, first compound 10 µM): 0.89% | viability, T/C [21]: 2.27% | viability, T/C [22]: 1.33% | viability, T/C [23]: 1.26% | viability, T/C [24]: 1.33% | viability, T/C (second compound 0.3 µM, first compound 3.16 µM): 1.18% | viability, T/C (second compound 0.3 µM, first compound 10 µM): 0.92%
